Drawing on patent US10633389B2, “CARM1 inhibitors and uses thereof” (Epizyme, Inc., priority 2013, dated 2020), this text covers IC50 for 45 molecules.

The first assay deals with asymmetric di-methyl PABP1 in RKO cells. Kind of assay: RKO methylation assay, In Cell Western (ICW) for asymmetric di-methyl PABP1. The conditions noted are these: Cellular potencies, ICW PABP1me2a. Type of assay: cell-based. The essentials: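 RKO cells treated with compound for 48 h at 37 °C, then fixed, permeabilized and immunostained for asymmetric di-methyl PABP1, with DRAQ5 as DNA stain. Infrared 700/800 nm signal ratio normalized to DMSO and 20 μM reference-compound controls; IC50 from triplicate wells.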
What is called IC50 is the point on the concentration scale where inhibition reaches its midpoint. Lower therefore signals inhibition by little substance. In turn, `CNC[C@@H](O)COc1ccc(Cl)c(-c2nc(-c3c(C)noc3C)c(C)c(N3Cc4c(C)nn(C)c4C3)n2)c1` [Example 237-3] had an IC50 of under 5 µM.

Still in this assay, the particulars now being: Homo sapiens, RKO, Cellular potencies, ICW PABP1me2a.
`CNC[C@@H](O)COc1ccc(Cl)c(-c2nc(N[C@H]3CCOC3)c(C)c(-c3c(C)noc3C)n2)c1` [Example 111-3] registered an IC50 of under 5 µM.

`CNCC(O)COc1cccc(-c2nc(-c3ccc(C(F)(F)F)nc3)cc(N(C)C3CCOCC3)n2)c1` (stereo not drawn) [Example 613-1a] gave an IC50 of 10 to 20 µM. With `CNCC(O)COc1cccc(-c2nc(N(C)c3cncnc3)cc(N(C)C3CCOCC3)n2)c1` (stereo not drawn) [Example 487-1a], the IC50 was under 5 µM. `CNCC(O)COc1cccc(-c2nc(-c3c[nH]c4ncncc34)cc(N(C)C3CCOCC3)n2)c1` (stereo not drawn) [Example 504-1a] showed an IC50 of under 5 µM. For the molecule `CCS(=O)(=O)N1CCCC(Nc2nc(-c3cccc(OCC(O)CNC)c3)nc(-c3c(C)noc3C)c2C)C1` (stereo not drawn) [Example 204-1a], the IC50 is under 5 µM. In turn, `CNCC(O)COc1cccc(-c2nc(C3CCNCC3)cc(N(C)C3CCOCC3)n2)c1` (stereo not drawn) [Example 615-1a] showed an IC50 of 10 to 20 µM. `CCOC(=O)N1CCCC(CNc2nc(-c3cccc(OCC(O)CNC)c3)nc(-c3c(C)noc3C)c2C)C1` (stereo not drawn) [Example 194-1a] showed an IC50 of under 5 µM. Consider `CNCC(O)COc1cccc(-c2nc(-c3c(C)noc3C)c(C)c(N3CC[C@H](C(=O)N(C)C)C3)n2)c1` (stereo partly drawn) [Example 162-1a], for which the concentration for half-maximal inhibition (IC50) is under 5 µM. Molecule `CNCC(O)COc1cccc(-c2nc(N[C@@H]3CCOC3)c(C)c(N3CCN(C4CC4)CC3)n2)c1` (stereo partly drawn) [Example 436-1a] showed an IC50 of under 5 µM. For `CNC[C@@H](O)COc1ccc(F)c(-c2nc(-c3c(C)noc3C)c(C)c(N3CC4(CCN(CC(F)F)CC4)C3)n2)c1` [Example 280-3], the IC50 is under 5 µM. Regarding `CNCC(O)COc1cccc(-c2nc(-c3c(C)noc3C)cc(N3CCN(S(C)(=O)=O)[C@H](C)C3)n2)c1` (stereo partly drawn) [Example 147-1a], the 50% inhibitory concentration (IC50) was under 5 µM. Molecule `CCO[C@@H]1CCC[C@H]1Nc1nc(-c2cc(OC[C@H](O)CNC)ccc2F)nc(-c2c(C)noc2C)c1C` [Example 191-3] displayed an IC50 of under 5 µM.

Turning to `CNCC(O)COc1cccc(-c2nc(-c3cnc(CO)n3C)cc(N(C)C3CCOCC3)n2)c1` (stereo not drawn) [Example 572-1a], the IC50 was in the range of 10 to 20 µM. Same read-out and setting: the value for `CNCC(O)COc1cccc(-c2nc(-c3cn(C)c4ncncc34)cc(N(C)C3CCOCC3)n2)c1` (stereo not drawn) [Example 485-1a] was under 5 µM; that for `CNCC(O)COc1cccc(-c2nc(N[C@@H]3CCOC3)c(C)c(N3CCC4(CCNCC4)CC3)n2)c1` (stereo partly drawn) [Example 429-1a] was 10 to 20 µM. As for `CCc1onc(C)c1-c1nc(-c2cccc(OCC(O)CNC)c2)nc(NC2CCOCC2)c1C` (stereo not drawn) [Example 276-1a], the IC50 is under 5 µM. As for `CNC[C@H](O)COc1ccc(Cl)c(-c2nc(N[C@H]3CCN(C(=O)OC)[C@H](C)C3)c(C)c(-c3c(C)noc3C)n2)c1` [Example 103-3], the IC50 is under 5 µM. The molecule `CNCC(O)COc1cccc(-c2nc(-c3cnn(CC(C)C)c3)cc(N(C)C3CCOCC3)n2)c1` (stereo not drawn) [Example 516-1a] came in with an IC50 of 5 to 10 µM. Turning to `CCOC(=O)N1CCCC(Nc2nc(-c3cccc(OCC(O)CNC)c3)nc(-c3c(C)noc3C)c2C)C1` (stereo not drawn) [Example 190-1a], the IC50 was under 5 µM. Take `CNC[C@@H](O)COc1ccc(Cl)c(-c2nc(-c3c(C)noc3C)cc(N3Cc4cnn(C)c4C3)n2)c1` [Example 250-3]: the IC50 is under 5 µM.

As to `CNCC(O)COc1cccc(-c2nc(-c3c(C)noc3C)cc(N3C[C@@H]4C[C@H]3CN4S(C)(=O)=O)n2)c1` (stereo partly drawn) [Example 80-1a], the IC50 was in the range of 10 to 20 µM. Same read-out and setting: for `CNC[C@@H](O)COc1ccc(F)c(-c2nc(N[C@H]3CCN(C4CC4)C[C@H]3F)c(C)c(-c3c(C)noc3C)n2)c1` [Example 98-3] the value was under 5 µM. Consider `CNCC(O)COc1ccc(Cl)c(-c2nc(N[C@H]3CCN(C(=O)OC)C[C@H]3F)c(C)c(-c3c(C)noc3C)n2)c1` (stereo partly drawn) [Example 4-3], for which the IC50 is under 5 µM. The same measure, in the same setting: the value for `CNC[C@@H](O)COc1ccc(Cl)c(-c2nc(-c3c(C)noc3C)cc(N3Cc4nccnc4C3)n2)c1` [Example 251-3] was under 5 µM; that for `CCS(=O)(=O)N1CC(Nc2nc(-c3cccc(OCC(O)CNC)c3)nc(-c3c(C)noc3C)c2C)C1` (stereo not drawn) [Example 273-1a] was 10 to 20 µM. `CNC[C@@H](O)COc1ccc(Cl)c(-c2nc(-c3c(C)noc3C)c(C)c(N3CC(CO)(CO)C3)n2)c1` [Example 163-3] came in with an IC50 of 5 to 10 µM.

`CNCC(O)COc1cccc(-c2nc(NCC3CCOCC3)c(C)c(-c3c(C)noc3C)n2)c1` (stereo not drawn) [Example 88-1a] returned an IC50 of under 5 µM. As to `CNCC(O)COc1cccc(-c2nc(-c3c(C)noc3C)c(C)c(N3CCN(Cc4ccccc4)C(C(F)F)C3)n2)c1` (stereo not drawn) [Example 235-1a], the IC50 was under 5 µM. Molecule `CNC[C@@H](O)COc1ccc(Cl)c(-c2nc(-c3c(C)noc3C)cc(N3CC4(CCOCC4)C3)n2)c1` [Example 249-3] displayed an IC50 of under 5 µM. As for `CNCC(O)COc1cccc(-c2nc(-c3c(C)noc3C)c(C)c(N(C)[C@H]3C[C@@](C)(OC)C3)n2)c1` (stereo partly drawn) [Example 20-3], the IC50 is under 5 µM.

`CNCC(O)COc1cc(Cl)cc(-c2nc(C(=O)OC)cc(N(C)C3CCOCC3)n2)c1` (stereo not drawn) [Example 623-1a] registered an IC50 of 10 to 20 µM. For `CNCC(O)COc1cccc(-c2nc(-c3ccnc(C(=O)NC)c3)cc(N(C)C3CCOCC3)n2)c1` (stereo not drawn) [Example 510-1a], the IC50 was 5 to 10 µM. In turn, `CNC[C@@H](O)COc1ccc(Cl)c(-c2nc(N[C@H]3CCO[C@H](C)C3)c(Cl)c(-c3c(C)noc3C)n2)c1` [Example 197-3] had an IC50 of under 5 µM.

Consider `CCOC(=O)N1CCC2(CC1)CN(c1nc(-c3cc(OC[C@H](O)CNC)ccc3F)nc(-c3c(C)noc3C)c1C)C2` [Example 282-3], for which the IC50 is under 5 µM. The same measure, in the same setting: for `CNC[C@@H](O)COc1ccc(Cl)c(-c2nc(-c3c(C)noc3C)c(F)c(N3CC4(CCOCC4)C3)n2)c1` [Example 261-3] the value was under 5 µM; for `CNCC(O)COc1cccc(-c2nc(-c3c(C)noc3C)c(C)c(N3CCN(C(=O)OCC(F)F)CC3)n2)c1` (stereo not drawn) [Example 161-1a], under 5 µM; for `CNCC(O)COc1cccc(-c2nc(N[C@H]3CCOC3)c(C)c(N3CCOCC3)n2)c1` (stereo partly drawn) [Example 26-1], 10 to 20 µM.

Take `CCOC(=O)N1CCOC[C@H]1CNc1nc(-c2cc(OC[C@H](O)CNC)ccc2F)nc(-c2c(C)noc2C)c1C` [Example 60-3]: the IC50 is under 5 µM. The molecule `CNC[C@H](O)COc1ccc(F)c(-c2nc(NC3CCOCC3)c(C)c(-c3c(C)noc3C)n2)c1` [Example 72-3] yielded an IC50 of under 5 µM. Still for that read-out and setting: for `CNCC(O)COc1cccc(-c2nc(OCC3CCN(C(=O)OCc4ccccc4)CC3)c(C)c(-c3c(C)noc3C)n2)c1` (stereo not drawn) [Example 259-1a] the value was under 5 µM; for `CNCC(O)COc1cccc(-c2nc(NCC3CCN(C(=O)C4CC4)CC3)c(C)c(-c3c(C)noc3C)n2)c1` (stereo not drawn) [Example 249-1a], under 5 µM.

`CNCC(O)COc1cccc(-c2nc(-c3c(C)noc3C)cc(N3CCNC(C)C3)n2)c1` (stereo not drawn) [Example 35-1a] showed an IC50 of 5 to 10 µM. `CNC[C@@H](O)COc1ccc(Cl)c(-c2nc(-c3c(C)noc3C)c(C)c(N3Cc4cn(S(C)(=O)=O)nc4C3)n2)c1` [Example 293-3]: the IC50 was under 5 µM. Molecule `CNCC(O)COc1cccc(-c2nc(-c3c(C)noc3C)cc(N3CCN(CC(F)(F)F)[C@H](C)C3)n2)c1` (stereo partly drawn) [Example 144-1a] showed a half-inhibitory concentration (IC50) of under 5 µM.
